Article PMC4002258 (Biochimica et biophysica acta, 2013)
Read-outs that look alike come from different tables or passages of the source. Marks after values point to notes of the source that are not given here.

Legend:
Assay type in all cases: biochemical
[1] = target: T1, human recombinant core 2/4 β1,6-GlcNAc-transferase (C2GnT2) (Homo sapiens, UniProt O95395); conditions: for C2GnT2 activity (%): acceptor substrate 0.5 mM, 0.5 mM Galβ1–3GalNAcα-pnp set to 100%
T1 sequence (O95395 27-438): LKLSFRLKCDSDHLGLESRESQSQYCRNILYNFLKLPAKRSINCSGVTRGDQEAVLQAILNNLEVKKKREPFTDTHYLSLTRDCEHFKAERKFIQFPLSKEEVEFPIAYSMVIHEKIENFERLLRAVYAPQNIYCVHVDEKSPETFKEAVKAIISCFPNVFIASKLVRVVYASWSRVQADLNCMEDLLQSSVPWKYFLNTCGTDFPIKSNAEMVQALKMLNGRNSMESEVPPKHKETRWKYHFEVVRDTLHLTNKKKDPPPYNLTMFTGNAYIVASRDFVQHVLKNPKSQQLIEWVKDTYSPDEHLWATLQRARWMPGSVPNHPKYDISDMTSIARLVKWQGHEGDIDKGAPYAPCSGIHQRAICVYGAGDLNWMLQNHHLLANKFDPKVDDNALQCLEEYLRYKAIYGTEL

[2] = target: T2, human recombinant core 2 β1,6-GlcNAc-transferase (C2GnT1) (Homo sapiens, UniProt Q02742); assay: C2GnT1 glycosyltransferase assay; conditions: for C2GnT1 activity (%): acceptor substrate 0.5 mM, 0.5 mM Galβ1–3GalNAcα-pnp set to 100%
T2 sequence (Q02742 33-428 limits assumed): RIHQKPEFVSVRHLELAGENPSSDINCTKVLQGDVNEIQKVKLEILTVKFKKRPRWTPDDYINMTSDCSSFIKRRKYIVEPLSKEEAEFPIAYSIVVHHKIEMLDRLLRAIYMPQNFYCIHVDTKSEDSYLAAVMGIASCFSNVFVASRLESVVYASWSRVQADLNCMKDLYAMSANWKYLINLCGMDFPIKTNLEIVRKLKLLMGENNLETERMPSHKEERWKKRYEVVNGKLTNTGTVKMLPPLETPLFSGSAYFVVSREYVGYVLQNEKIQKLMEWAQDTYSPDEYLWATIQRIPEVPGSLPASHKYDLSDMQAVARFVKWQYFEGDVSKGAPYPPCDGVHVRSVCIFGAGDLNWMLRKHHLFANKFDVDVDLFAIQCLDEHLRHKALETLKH

[3] = target: human recombinant core 1 β1,3-Gal-transferase (C1GalT) (Homo sapiens, UniProt Q9NS00); assay: C1GalT glycosyltransferase assay; conditions: acceptor substrate 0.5 mM; 0.5 mM GalNAcα-Bn set to 100%
human recombinant core 1 β1,3-Gal-transferase (C1GalT), sequence (Q9NS00 30-363 limits assumed): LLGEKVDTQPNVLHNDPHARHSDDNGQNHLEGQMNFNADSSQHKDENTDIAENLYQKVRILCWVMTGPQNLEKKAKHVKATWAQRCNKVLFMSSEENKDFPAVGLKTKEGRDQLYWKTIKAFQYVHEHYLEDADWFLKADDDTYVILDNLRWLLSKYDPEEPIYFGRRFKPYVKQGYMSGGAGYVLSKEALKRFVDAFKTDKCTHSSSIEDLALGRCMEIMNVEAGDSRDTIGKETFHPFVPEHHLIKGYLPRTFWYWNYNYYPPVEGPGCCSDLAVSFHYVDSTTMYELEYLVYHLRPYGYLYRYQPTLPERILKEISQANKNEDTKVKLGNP

Molecule | C2GnT2 activity (%) [1] | C2GnT1 activity (%) [2] | other results
CC(=O)N[C@H]1[C@@H](OCc2ccccc2)O[C@H](CO)[C@H](O)[C@@H]1O[C@@H]1O[C@H](CO)[C@H](O)C[C@H]1O [3-Deoxy-Galβ1–3GalNAcα-Bn] | 52% | 90% | –
CO[C@H]1[C@@H](O)[C@@H](CO)O[C@@H](O[C@H]2[C@@H](O)[C@@H](CO)O[C@H](OCc3ccccc3)[C@@H]2NC(C)=O)[C@@H]1O [3-O-Methyl-Galβ1–3GalNAcα-Bn] | 41% | 104% | –
CC(=O)N[C@H]1[C@@H](OCc2ccccc2)O[C@H](CO)[C@H](O)[C@@H]1O[C@@H]1O[C@H](CO)C[C@H](O)[C@H]1O [4-Deoxy-Galβ1–3GalNAcα-Bn] | <1% | <1% | –
CC(=O)N[C@H]1[C@@H](OCc2ccccc2)O[C@H](CO)[C@H](O)[C@@H]1O[C@@H]1O[C@H](CO)[C@H](F)[C@H](O)[C@H]1O [4-F-4-Deoxy-Galβ1–3GalNAcα-Bn] | <1% | <1% | –
CC(=O)N[C@H]1[C@@H](OCc2ccccc2)O[C@H](CO)[C@H](O)[C@@H]1O[C@@H]1O[C@H](C)[C@H](O)[C@H](O)[C@H]1O [6-Deoxy-Galβ1–3GalNAcαBn] | <1% | <1% | –
CO[C@H]1O[C@H](CO)[C@H](O)[C@H](O[C@@H]2O[C@H](CO)[C@H](O)[C@H](O)[C@H]2O[C@@H]2O[C@@H](C)[C@@H](O)[C@@H](O)[C@@H]2O)[C@H]1NC(C)=O [Fucα1–2Galβ1–3GalNAcα-methyl] | <1% | <1% | –
CC(=O)N[C@H]1[C@@H](OCc2ccccc2)O[C@H](CO)C[C@@H]1O[C@@H]1O[C@H](CO)[C@H](O)[C@H](O)[C@H]1O [Galβ1–3(4-deoxy)GalNAcα-Bn] | <1% | <1% | –
COC[C@H]1O[C@H](OCc2ccccc2)[C@H](NC(C)=O)[C@@H](O[C@@H]2O[C@H](CO)[C@H](O)[C@H](O)[C@H]2O)[C@H]1O [Galβ1–3(6-O-methyl)GalNAcα-Bn] | <1% | <1% | –
CC(=O)N[C@H]1[C@@H](OCc2ccccc2)O[C@H](CO)[C@H](O)[C@@H]1O[C@@H]1O[C@H](CO)[C@H](O)[C@H](O)[C@H]1O [Galβ1–3GalNAcα-Bn] | 35% | 64% | –
CC(=O)N[C@H]1[C@@H](Oc2ccccc2[N+](=O)[O-])O[C@H](CO)[C@H](O)[C@@H]1O[C@@H]1O[C@H](CO)[C@H](O)[C@H](O)[C@H]1O [Galβ1–3GalNAcα-onp] | 100% | 79% | –
C=C(C)C1CC=C(CO[C@H]2O[C@H](CO)[C@H](O)[C@H](O[C@@H]3O[C@H](CO)[C@H](O)[C@H](O)[C@H]3O)[C@H]2NC(C)=O)CC1 (stereo partly shown) [Galβ1–3GalNAcα-perillyl] | 86% | 135% | –
CC(=O)N[C@H]1[C@@H](Oc2ccc([N+](=O)[O-])cc2)O[C@H](CO)[C@H](O)[C@@H]1O[C@@H]1O[C@H](CO)[C@H](O)[C@H](O)[C@H]1O [Galβ1–3GalNAcα-pnp, reference compound] | 100 ^b % | 100 ^a % | Vmax ([1]; C2GnT2, acceptor substrate): 1.5 µmol/h/mg
CC(=O)N[C@H]1[C@@H](OCc2ccccc2)O[C@H](CO)[C@@H](O)[C@@H]1O[C@@H]1O[C@H](CO)[C@H](O)[C@H](O)[C@H]1O [Galβ1–3GlcNAcα-Bn] | – | <1% | –
CC(=O)N[C@H]1[C@@H](OCc2ccccc2)O[C@H](CO)[C@H](O)[C@@H]1O[C@@H]1O[C@H](CO)[C@H](O)[C@H](O[C@@H]2O[C@H](CO)[C@@H](O)[C@H](O[C@@H]3O[C@H](CO)[C@H](O)[C@H](O)[C@H]3O)[C@H]2NC(C)=O)[C@H]1O [Galβ1–3GlcNAcβ1–3Galβ1–3GalNAcα-Bn] | <1% | <1% | –
CO[C@@H]1O[C@H](CO)[C@H](O)[C@H](O[C@@H]2O[C@H](CO)[C@@H](O)[C@H](O)[C@H]2NC(C)=O)[C@H]1O [GlcNAcβ1–3-Galβ-methyl] | <1% | <1% | –
C=CCO[C@H]1O[C@H](CO)[C@H](O)[C@H](O[C@@H]2O[C@H](CO)[C@@H](O)[C@H](O)[C@H]2NC(C)=O)[C@H]1NC(C)=O [GlcNAcβ1–3GalNAcα-allyl] | 27% | <1% | –
CC(=O)N[C@H]1[C@H](O[C@H]2[C@@H](O)[C@@H](CO)O[C@H](Oc3ccc([N+](=O)[O-])cc3)[C@@H]2NC(C)=O)O[C@H](CO)[C@@H](O)[C@@H]1O [GlcNAcβ1–3GalNAcα-pnp, reference compound] | 32% | <1% | Vmax ([1]; C2GnT2, acceptor substrate): 1.0 µmol/h/mg
CC(=O)N[C@H]1[C@H](OC[C@H]2O[C@H](OCc3ccccc3)[C@H](NC(C)=O)[C@@H](O[C@@H]3O[C@H](CO)[C@@H](O)[C@H](O)[C@H]3NC(C)=O)[C@H]2O)O[C@H](CO)[C@@H](O)[C@@H]1O [GlcNAcβ1–6(GlcNAcβ1–3)GalNAcα-Bn] | <1% | <1% | –
CC(=O)N[C@H]1[C@@H](OP(=O)(O)OP(=O)(O)OC[C@H]2O[C@@H](n3ccc(=O)[nH]c3=O)[C@H](O)[C@@H]2O)O[C@H](CO)[C@@H](O)[C@@H]1O [UDP-GlcNAc, reference compound] | – | – | Vmax ([1]; C2GnT2, donor substrate, using 5 mM Galβ1–3GalNAcα-pnp): 1.7 µmol/h/mg; Vmax ([1]; C2GnT2, donor substrate, using 5 mM GlcNAcβ1–3GalNAcα-pnp): 0.8 µmol/h/mg; Vmax ([2]; C2GnT1, donor substrate, using 5 mM Galβ1–3GalNAcα-pnp): 0.1 µmol/h/mg
(Galβ1–3GalNAcα)TAGV | <1% | 92% | –
AHGVT-(Galβ1–3GalNAcα)SAPDTRPAPGS- (Galβ1–3GalNAcα)SAPPA | <1% | 9% | –
AHGVT-(Galβ1–3GalNAcα)SAPDTRPAPGSTAP- (Galβ1–3GalNAcα)TA | <1% | 18% | –
AHGVT-(Galβ1–3GalNAcα)SAPDTRPAPGSTAPNA | <1% | 9% | –

Molecule | C2GnT2 activity (%) [1] | C2GnT1 activity (%) [2] | other results
AHGVT-(Galβ1–3GalNAcα)SAPDTRPAPGSTAPTA | <1% | 9% | –
AHGVT-(Galβ1–3GalNAcα)SAPESRPAPGSTAPNA | <1% | 9% | –
AHGVT-(Galβ1–3GalNAcα)SAPETRPAPGSTAPTA | <1% | 11% | –
Ac-G-(Galβ1–3GalNAcα)TTTPIST-NH2 | 8% | 12% | –
Ac-GT-(Galβ1–3GalNAcα)TTPIST-NH2 | 5% | 13% | –
Ac-GTT-(Galβ1–3GalNAcα)TPIST-NH2 | <1% | 14% | –
Ac-P-(Galβ1–3GalNAcα)TTTGIST-NH2 | <1% | 7% | –
Ac-P-(Galβ1–3GalNAcβ)TTTPIST-NH2 | 32% | 72% | –
Ac-PT-(Galβ1–3GalNAcα)TTGIST-NH2 | 6% | 49% | –
Ac-PT-(Galβ1–3GalNAcβ)TTPIST-NH2 | 15% | 43% | –
Ac-PTT-(Galβ1–3GalNAcα)TGIST-NH2 | <1% | 36% | –
T-(GalNAcα)TTVTPTPTG | – | – | C1GalT activity (%) [3]: 231%
T-(Galβ1–3GalNAcα)TTVTPTPTG | <1% | 11% | –
T-(GlcNAcβ1–3GalNAcα)TTVTPTPTG | <1% | <1% | –
TE-(GalNAcα)TTSHSTPG | – | – | C1GalT activity (%) [3]: 373%
TE-(GlcNAcβ1–3GalNAcα)TTSHSTPG | <1% | <1% | –
TET-(GalNAcα)TSHSTPG | – | – | C1GalT activity (%) [3]: 210%
TET-(Galβ1–3GalNAcα)TSHSTPG | <1% | 27% | –
TET-(GlcNAcβ1–3GalNAcα)TSHSTPG | <1% | <1% | –
TETTSHS-(Galβ1–3GalNAcα)TPG | 7% | 70% | –
TETTSHS-(GlcNAcβ1–3GalNAcα)TPG | <1% | <1% | –
TT-(Galβ1–3GalNAcα)TVTP-(Galβ1–3GalNAcα)TPTG | <1% | 12% | –
TT-(Galβ1–3GalNAcα)TVTPTPTG | <1% | 13% | –
